Measurements as given in PubChem BioAssay (NCI).
Where “and” joins values, the source holds several entries; their conditions need not be identical. Equal entries are not always repeated.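 In this assay, cells in 96-well plates receive the compound at five concentrations for 48 hours. Endpoints are linearly interpolated between the surrounding concentrations. At the GI50, growth is halved. TGI: total growth inhibition.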

Assays:
Assay in all cases: NCI anticancer screen, dose series, 48 h
SN12C renal = tested on: SN12C renal
SF-268 CNS = tested on: SF-268 CNS
MDA-MB-435 = tested on: MDA-MB-435
M14 melanoma = tested on: M14 melanoma
RXF 393 renal = tested on: RXF 393 renal
EKVX NSCLC = tested on: EKVX NSCLC
NCI-H23 lung = tested on: NCI-H23 lung
SR leukemia = tested on: SR leukemia

| Structure (SMILES) | GI50 (SN12C renal) | TGI (SN12C renal) | GI50 (SF-268 CNS) | TGI (SF-268 CNS) | GI50 (MDA-MB-435) | TGI (MDA-MB-435) | GI50 (M14 melanoma) | TGI (M14 melanoma) | GI50 (RXF 393 renal) | TGI (RXF 393 renal) | GI50 (EKVX NSCLC) | TGI (EKVX NSCLC) | GI50 (NCI-H23 lung) | TGI (NCI-H23 lung) | GI50 (SR leukemia) | TGI (SR leukemia) |
| --- | --- | --- | --- | --- | --- | --- | --- | --- | --- | --- | --- | --- | --- | --- | --- | --- |
| Clc1ccc(Nc2nc3ccccc3c3occc23)cc1 | 10.9 µM | 22.6 µM | 8.09 µM | 16.7 µM | 7.5 µM | 14.1 µM | 8.46 µM | 16.9 µM | 8.4 µM | 16.9 µM | 8.02 µM | 15.9 µM | 8.02 µM | 14.9 µM | 23.2 µM | > 50 µM |
| C=C(C(=O)OC)[C@@H]1C[C@@H](O)[C@]2(C)CC/C=C(\C)CCC[C@H](C)[C@H](O)C1O2 | 77.9 µM | > 100 µM | 65 µM | > 100 µM | 37.8 µM | > 100 µM | 44 µM | > 100 µM | 53.3 µM | > 100 µM | 55.9 µM | > 100 µM | 80.6 µM | > 100 µM |  |  |
| COC(=O)[C@]12CC[C@@H](C)[C@H](C)[C@@H]1C1=CC[C@@H]3[C@@]4(C)C=C(O)C(=O)C(C)=C4CC[C@@]3(C)[C@]1(C)CC2 | 19.2 µM | 50.4 µM | 15.2 µM | 35.1 µM | 13.8 µM | 28.2 µM | 11 µM | 29 µM | 12.1 µM | 27.9 µM | 4.96 µM | 19.5 µM | 11 µM | 27.8 µM | 5.29 µM | 28.2 µM |
| CN1CCN(c2cc(Nc3cc(C4CC4)[nH]n3)nc(Nc3ccc(CC(=O)NCc4cccc(F)c4)cc3)n2)CC1 | 0.756 µM | 14.4 µM | 1.23 µM | 12.3 µM | 0.44 µM | 2.63 µM | 0.752 µM | 2.41 µM | 0.404 µM | 1.71 µM | 3.41 µM | 32.4 µM | 1.05 µM | 9.74 µM | 0.293 µM | > 20.4 µM |
| CN(C)CCCC(=O)Nc1ccc(Cn2nnc3c2C(=O)c2nnn(Cc4ccc(NC(=O)CCCN(C)C)cc4)c2C3=O)cc1 | 1.96 µM | 4 µM | 3.29 µM | 12.8 µM | 1.82 µM | 3.26 µM | 5.97 µM | 24.3 µM | 5 µM | 21.6 µM |  |  | 2.13 µM | 5.01 µM | 3.36 µM | 61.4 µM |
| COc1ccc(Cn2cc(Cn3c(=O)c(-c4nc5ccccc5[nH]4)cc4ccccc43)nn2)c(OC)c1OC | 0.217 µM and 0.426 µM | 50 µM and > 100 µM | 0.55 µM and 0.477 µM |  | 0.0821 µM and 0.0453 µM | 0.186 µM and 0.17 µM |  |  | 0.129 µM | 0.49 µM | 0.904 µM and 0.605 µM | 50 µM and > 100 µM | 0.329 µM and 0.581 µM | 50 µM and > 100 µM | 0.291 µM | > 100 µM |
| C[C@@]12CCC[C@@](C)(C(=O)O)C1CC[C@@]13CC(=O)[C@@](CO)(CCC12)C3 (some centres not stated) | > 100 µM | > 100 µM | > 100 µM | > 100 µM | > 100 µM | > 100 µM | > 100 µM | > 100 µM | > 100 µM | > 100 µM | > 100 µM | > 100 µM | > 100 µM | > 100 µM | > 100 µM | > 100 µM |
| CCN1CCCCC(=N\O)/C(=N/O)CCCC1 |  | > 100 µM |  | > 100 µM |  | > 100 µM |  | > 100 µM |  | > 100 µM |  | > 100 µM |  | > 100 µM |  | > 100 µM |
| CC(C)(C)c1nnc2n(c1=O)N=CC(c1ccc(Br)cc1)S2 (configuration not stated) | 27.7 µM | 57.2 µM | 42.7 µM | > 100 µM | 27.9 µM | 78.7 µM | 24.4 µM | 63.1 µM | 23.6 µM | 82.5 µM | 22.7 µM | 66.7 µM | 19.8 µM | 46.8 µM | 24.2 µM | 80.7 µM |
| COc1cc2c3c(n(CCCNCCN4CCOCC4)c(=O)c2cc1OC)-c1cc2c(cc1C3=O)OCO2 | 1.31 µM | 6.5 µM |  | 8.09 µM and > 65.8 µM | 1.93 µM and 4.36 µM | 10.3 µM and 19.2 µM |  |  |  |  | 8.93 µM and 7.24 µM | 18.2 µM and 18.6 µM |  | 0.529 µM and 3.83 µM | < 0.005 µM |  |
| O=[N+]([O-])c1ccc2c(c1)S(=O)c1ccccc1-2 (configuration not stated) |  | > 100 µM |  | > 100 µM |  | > 100 µM |  | > 100 µM |  |  |  | > 100 µM |  | > 100 µM |  | > 100 µM |
| COP1(=S)OCC2CCC[C@@H]2O1 (some centres not stated) |  | > 100 µM |  | > 100 µM |  | > 100 µM |  | > 100 µM |  | > 100 µM |  |  |  | > 100 µM |  | > 100 µM |
| CC(C)CC(=O)CC(O)C(Cl)(Cl)Cl (configuration not stated) |  | > 100 µM |  |  |  | > 100 µM |  | > 100 µM |  | > 100 µM |  | > 100 µM |  | > 100 µM |  | > 100 µM |
| COc1ccc(-c2[nH]ncc2-c2cc(OC)c(OC)c(OC)c2)cc1 |  | > 81.8 µM | < 0.0127 µM | > 38.1 µM | < 0.01 µM | < 0.01 µM | < 0.01 µM | 0.852 µM | < 0.01 µM | 17.8 µM |  |  | 0.0103 µM | 26.7 µM | < 0.01 µM | 19.5 µM |
| N#Cc1ccc2oc3ccc(C#N)cc3c(=O)c2c1 |  | > 100 µM |  | 69.1 µM |  | > 100 µM |  | > 100 µM |  | 42.8 µM |  |  |  | 51.1 µM |  | > 100 µM |
| CC12CCC(O)CC1CCC1C2CCC2(C)C(C3=CC(=O)OC3)CCC12 (configuration not stated) | 53.8 µM | > 100 µM | 5.17 µM | > 41.8 µM | > 100 µM | > 100 µM | > 100 µM | > 100 µM | 7.76 µM | 42.5 µM |  |  | 5.81 µM | > 64.6 µM | 0.375 µM | > 100 µM |
| CCCCC#Cc1cccc(=O)o1 |  |  | > 100 µM | > 100 µM | 15 µM | > 100 µM | 4.5 µM | > 100 µM | 44.3 µM | > 100 µM | 12.4 µM | > 100 µM | 8.98 µM | > 100 µM |  |  |
| CS(=O)(=O)CS(=O)CS(=O)CS(=O)CC(NC(=O)CCC(N)C(=O)O)C(=O)O (configuration not stated) |  | > 100 µM |  | > 100 µM |  | > 100 µM |  | > 100 µM |  |  |  | > 100 µM |  | > 100 µM |  | > 100 µM |
